Experimental findings from patent publication US20100099703A1, “PHENYLAMINO-SUBSTITUTED PIPERIDINE COMPOUNDS, THEIR PREPARATION AND USE AS MEDICAMENTS” (priority 2006, published 2010) are described below.

The term inhibition denotes the share of the control response that was lost under treatment. Read a high inhibition as strong suppression.

The test deals with T1, rat Y5 receptor (Rattus norvegicus, UniProt Q63634).
T1 construct: expressed in transfected cells; host or cells: C6 cells (membrane preparation)
T1 sequence (Q63634 1-445): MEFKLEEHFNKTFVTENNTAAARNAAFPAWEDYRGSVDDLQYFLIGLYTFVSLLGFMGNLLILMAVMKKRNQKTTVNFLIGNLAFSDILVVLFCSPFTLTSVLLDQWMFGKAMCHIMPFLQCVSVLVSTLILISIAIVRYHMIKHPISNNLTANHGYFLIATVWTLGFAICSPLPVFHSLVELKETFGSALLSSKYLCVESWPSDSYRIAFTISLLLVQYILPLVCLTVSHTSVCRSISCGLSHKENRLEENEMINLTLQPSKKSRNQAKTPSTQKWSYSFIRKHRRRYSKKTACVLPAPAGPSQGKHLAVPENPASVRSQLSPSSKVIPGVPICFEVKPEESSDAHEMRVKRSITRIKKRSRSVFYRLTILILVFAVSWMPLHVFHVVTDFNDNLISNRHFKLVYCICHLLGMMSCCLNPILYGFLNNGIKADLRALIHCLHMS
In words: Neuropeptide Y5 receptor binding ([125I]-PYY displacement, membranes of transfected C6 cells). Particulars: compound at 10^−6 M; radioligand [125I]-PYY 100 pM; C6 cells transfected with rat Y5 receptor. The procedure: Neuropeptide Y5 Receptor Binding Studies:
The methods used for membrane preparation and binding are similar to those described by Y. Hu, B. T. Bloomquist et al. in Y. Hu, B. T. Bloomquist et al., The Journal of Biological Chemistry, 1996, 271, 26315-26319 with modifications. Said literature description is herewith incorporated by reference and forms part of the disclosure. Cells C6 were transfected with the rat Y5 receptor. The cells were grown under standard culture conditions in 150 cm^2 dishes and they were harvested using a rubber scraper and 10 ml PBS. The cells from five dishes were collected and centrifuged 2.500 g for 5 min (4° C.). The pellet was washed by resuspending in 3 ml buffer (Tris-HCl 10 mM, pH 7.4), homogenized using a Potter S homogenizer, 10 strokes at 600 rpm and centrifuged 48.000 g for 20 min (4° C.). The pellet was resuspended in 8 ml membrane buffer (Tris-HCl 25 mM, NaCl 120 mM, KCl 5 mM, KH2PO4 1.2 mM, CaCl2 2.5 mM, MgSO4 1.2 mM, BSA 0.15 mg/ml, Bacitracine 0.5 mg/ml, pH 7.4) and rehomogenized using the Potter S, 10 strokes at 600 rpm. The protein concentration in the incubation was 40 μg/ml. The radioligand was [^125I]-PYY (100 pM) in a total incubation volume of 200 μl. Following incubation at 25° C. for 2 h, the reaction was stopped by addition of 5 ml ice-cold buffer (Tris-HCl 25 mM, NaCl 120 mM, KCl 5 mM, KH2PO4 1.2 mM, CaCl2 2.5 mM, MgSO4 1.2 mM, pH 7.4) and rapid filtration in a Harvester Brandell Cell using filters (Schleicher & Schuell GF 3362) pretreated for two hours with 0.5% polyethyleneimine. Filters were washed one time with 5 ml ice-cold buffer. The filters were placed into plastic scintilation vials and 5 ml scintilation cocktail Ecoscint H were added. The quantity of radioactivity present was determined in a Wallac Winspectral 1414 counter. Non specific binding was determined in the presence of 1 μM de pNPY. All binding assays were done in triplicate.

As to `O=C(CN1CCC(N(CC(=O)Nc2ccc3c(c2)-c2ccccc2C3=O)c2ccc(O)cc2)CC1)Nc1ccc2c(c1)-c1ccccc1C2=O` [Example 38, 2-(4-{(4-Hydroxy-phenyl)-[(9-oxo-9H-fluoren-3-ylcarbamoyl)-methyl]-amino}-piperidin-1-yl)-N-(9-oxo-9H-fluoren-3-yl)-acetamide], the inhibition at 1 µM is 45.1%.
